{
  "source": "patent US20190111059A1",
  "about": "“COMPOSITIONS AND METHODS FOR TREATING AUTISM SPECTRUM DISORDER” (Marinus Pharmaceuticals, Inc., priority 2017, published 2019)",
  "key": {"[1]": {"system": "children with non-syndromic autism spectrum disorder (ASD) and language impairment", "assay": "Randomized placebo-controlled trial: Vineland Adaptive Behavior Scale (VABS)", "assay_type": "in vivo, human", "conditions": "higher = better; for VABS Daily living, estimated effect: calcium salt", "procedure": "The Vineland Adaptive Behavior Scale 2nd Edition (“VABS”) is a reliable and valid measure of the ability to perform age-appropriate everyday skills though a 20-30 min structured interview with a caretaker. Standard scores from the communication, daily living, social and motor skills, and adaptive behavioral composite were analyzed. Standard scores have a mean of 100, standard deviation of 15 and range 20-160. […] This two-arm double-blind randomized placebo-controlled parallel study with a 1:1 allocation was performed at Arkansas Children's Research Institute (Little Rock, Ark., USA) from 4 Jun. 2012 to 22 Nov. 2013. Those confirmed to have language impairment were randomized to the folinic acid or placebo group and a fasting blood sample was obtained. Randomization was performed using a random number generator with a block size of four. The research pharmacists had exclusive access to the randomization allocation. After breakfast, the participants returned for language, developmental and behavioral assessments. Following these assessments the family was given the 12 weeks of the intervention and was instructed on its administration. Language, developmental and behavioral assessments were repeated after 12 weeks of treatment. The target dose of the intervention (INN: DL folinic acid calcium salt; USAN: leucovorin calcium) was 2 mg kg^−1 per day (maximum 50 mg per day) in two equally divided doses with half of the target dose given during the first 2 weeks. Dye-free, milk-product-free, vegetarian capsules were provided in three strengths (5, 10 and 25 mg) by Lee Silsby Compounding Pharmacy (Cleveland Heights, Ohio, USA). Certificate of analysis was provided for each capsule strength by an independent analytical service (Eagle Analytical Services, Houston, Tex., USA) for each batch of capsules produced. In all cases, potency was at least 99%. Secondary outcomes. Secondary outcome measures included the Ohio Autism Clinical Impression Scale (OACIS), Vineland Adaptive Behavior Scale 2nd Edition (VABS) Survey Interview Form and several questionnaires. Parents and teachers were asked to complete the Aberrant Behavior Checklist (ABC), Social Responsiveness Scale (SRS) and Behavioral Assessment System for Children 2nd Edition (BASC). Only parents were asked to complete the Autism Impact Measure (AIM) and Autism Symptoms Questionnaire (ASQ). Secondary outcome measures were analyzed using the mixed-model regression. Because of the large number of secondary outcomes, correction for multiple comparisons was conducted using the false discovery rate."}, "[2]": {"system": "children with neurodevelopmental regression and neurological abnormalities (cerebral folate deficiency)", "conditions": "six children with cerebral folate deficiency; cited from earlier work"}, "[3]": {"system": "children with non-syndromic autism spectrum disorder (ASD) and language impairment", "assay": "Randomized placebo-controlled trial: Ohio Autism Clinical Impression Scale (OACIS)", "assay_type": "in vivo, human", "conditions": "lower = less severity", "procedure": "The Ohio Autism Clinical Impression Scale (“OACIS”) is an observer-rated scale sensitive to clinically meaningful changes in ASD symptoms. […] Severity of each symptom was rated by the first author at baseline and at the final assessment by observing the entire assessment of verbal communication. In validation studies a 0.5-point change was considered clinically meaningful. This two-arm double-blind randomized placebo-controlled parallel study with a 1:1 allocation was performed at Arkansas Children's Research Institute (Little Rock, Ark., USA) from 4 Jun. 2012 to 22 Nov. 2013. Those confirmed to have language impairment were randomized to the folinic acid or placebo group and a fasting blood sample was obtained. Randomization was performed using a random number generator with a block size of four. The research pharmacists had exclusive access to the randomization allocation. After breakfast, the participants returned for language, developmental and behavioral assessments. Following these assessments the family was given the 12 weeks of the intervention and was instructed on its administration. Language, developmental and behavioral assessments were repeated after 12 weeks of treatment. The target dose of the intervention (INN: DL folinic acid calcium salt; USAN: leucovorin calcium) was 2 mg kg^−1 per day (maximum 50 mg per day) in two equally divided doses with half of the target dose given during the first 2 weeks. Dye-free, milk-product-free, vegetarian capsules were provided in three strengths (5, 10 and 25 mg) by Lee Silsby Compounding Pharmacy (Cleveland Heights, Ohio, USA). Certificate of analysis was provided for each capsule strength by an independent analytical service (Eagle Analytical Services, Houston, Tex., USA) for each batch of capsules produced. In all cases, potency was at least 99%. Secondary outcomes. Secondary outcome measures included the Ohio Autism Clinical Impression Scale (OACIS), Vineland Adaptive Behavior Scale 2nd Edition (VABS) Survey Interview Form and several questionnaires. Parents and teachers were asked to complete the Aberrant Behavior Checklist (ABC), Social Responsiveness Scale (SRS) and Behavioral Assessment System for Children 2nd Edition (BASC). Only parents were asked to complete the Autism Impact Measure (AIM) and Autism Symptoms Questionnaire (ASQ). Secondary outcome measures were analyzed using the mixed-model regression. Because of the large number of secondary outcomes, correction for multiple comparisons was conducted using the false discovery rate."}, "[4]": {"conditions": "vs placebo, mixed-model regression"}, "[5]": {"conditions": "2 mg kg^−1 per day, 12 weeks, baseline 4.4"}},
  "note": "Counter-ions that a name gives are not always drawn.",
  "data": [
    {"smiles": "Nc1nc2c(c(=O)[nH]1)N(C=O)C(CNc1ccc(C(=O)N[C@@H](CCC(=O)O)C(=O)O)cc1)CN2", "note": "(mixture of isomers) [Folinic acid, DL folinic acid calcium salt]", "values": [
      {"measurement": "VABS Social skills, 12-week assessment mean", "setting": "[1]; 2 mg kg^−1 per day, 12 weeks, baseline 64.4", "value": 68.3, "unit": "Standard Score"},
      {"measurement": "VABS Daily living, 12-week assessment mean", "setting": "[1]; 2 mg kg^−1 per day, 12 weeks, baseline 64.6", "value": 69.2, "unit": "Standard Score"},
      {"measurement": "VABS Adaptive behavior, 12-week assessment mean", "setting": "[1]; 2 mg kg^−1 per day, 12 weeks, baseline 64.8", "value": 67.7, "unit": "Standard Score"},
      {"measurement": "VABS Communication, 12-week assessment mean", "setting": "[1]; 2 mg kg^−1 per day, 12 weeks, baseline 66.2", "value": 68.3, "unit": "Standard Score"},
      {"measurement": "VABS Motor skills, 12-week assessment mean", "setting": "[1]; 2 mg kg^−1 per day, 12 weeks, baseline 78.9", "value": 81.7, "unit": "Standard Score"},
      {"measurement": "VABS Adaptive behavior, estimated effect", "setting": "[1]; [4]", "value": 0.3, "unit": "Standard Score"},
      {"measurement": "VABS Communication, estimated effect", "setting": "[1]; [4]", "value": 0.2, "unit": "Standard Score"},
      {"measurement": "VABS Motor skills, estimated effect", "setting": "[1]; [4]", "value": 0.1, "unit": "Standard Score"},
      {"measurement": "VABS Social skills, estimated effect", "setting": "[1]; [4]", "value": 0.2, "unit": "Standard Score"},
      {"measurement": "VABS Daily living, estimated effect", "setting": "[1]; [4]", "value": 0.5, "unit": "Standard Score"},
      {"measurement": "VABS Daily living, estimated effect", "setting": "[1]; vs placebo, mixed-model regression, listed as folinic acid", "value": "significantly improved"},
      {"measurement": "CSF folate concentrations", "setting": "[2]", "value": "normalized"},
      {"measurement": "Neurological symptoms", "setting": "[2]", "value": "significantly improved"},
      {"measurement": "OACIS Sensory sensitivity, 12-week assessment mean", "setting": "[3]; 2 mg kg^−1 per day, 12 weeks, baseline 1.6", "value": 1.4, "unit": "Severity"},
      {"measurement": "OACIS Restricted interest, 12-week assessment mean", "setting": "[3]; 2 mg kg^−1 per day, 12 weeks, baseline 2.3", "value": 2.0, "unit": "Severity"},
      {"measurement": "OACIS Anxiety, 12-week assessment mean", "setting": "[3]; 2 mg kg^−1 per day, 12 weeks, baseline 2.5", "value": 2.3, "unit": "Severity"},
      {"measurement": "OACIS Repetitive behavior, 12-week assessment mean", "setting": "[3]; 2 mg kg^−1 per day, 12 weeks, baseline 3.2", "value": 2.5, "unit": "Severity"},
      {"measurement": "OACIS Non-verbal communication, 12-week assessment mean", "setting": "[3]; 2 mg kg^−1 per day, 12 weeks, baseline 3.6", "value": 3.3, "unit": "Severity"},
      {"measurement": "OACIS Aberrant behavior, 12-week assessment mean", "setting": "[3]; 2 mg kg^−1 per day, 12 weeks, baseline 3.8", "value": 3.4, "unit": "Severity"},
      {"measurement": "OACIS Hyperactivity, 12-week assessment mean", "setting": "[3]; 2 mg kg^−1 per day, 12 weeks, baseline 4.1", "value": 3.8, "unit": "Severity"},
      {"measurement": "OACIS Social, 12-week assessment mean", "setting": "[3]; 2 mg kg^−1 per day, 12 weeks, baseline 4.3", "value": 3.8, "unit": "Severity"},
      {"measurement": "OACIS Autistic behavior, 12-week assessment mean", "setting": "[3]; [5]", "value": 4.0, "unit": "Severity"},
      {"measurement": "OACIS Verbal communication, 12-week assessment mean", "setting": "[3]; [5]", "value": 3.8, "unit": "Severity"},
      {"measurement": "OACIS Aberrant behavior, estimated effect", "setting": "[3]; [4]", "value": "−0.3", "unit": "Severity"},
      {"measurement": "OACIS Anxiety, estimated effect", "setting": "[3]; [4]", "value": "−0.1", "unit": "Severity"},
      {"measurement": "OACIS Autistic behavior, estimated effect", "setting": "[3]; [4]", "value": "−0.2", "unit": "Severity"},
      {"measurement": "OACIS Hyperactivity, estimated effect", "setting": "[3]; [4]", "value": "−0.3", "unit": "Severity"},
      {"measurement": "OACIS Non-verbal communication, estimated effect", "setting": "[3]; [4]", "value": "−0.0", "unit": "Severity"},
      {"measurement": "OACIS Repetitive behavior, estimated effect", "setting": "[3]; [4]", "value": "−0.4", "unit": "Severity"},
      {"measurement": "OACIS Restricted interest, estimated effect", "setting": "[3]; [4]", "value": "−0.2", "unit": "Severity"},
      {"measurement": "OACIS Sensory sensitivity, estimated effect", "setting": "[3]; [4]", "value": "−0.3", "unit": "Severity"},
      {"measurement": "OACIS Social, estimated effect", "setting": "[3]; [4]", "value": "−0.1", "unit": "Severity"},
      {"measurement": "OACIS Verbal communication, estimated effect", "setting": "[3]; [4]", "value": "−0.2", "unit": "Severity"}
    ]}
  ]
}
